In patent publication US5223526A, “Pyrazole carboxanilide fungicides and use” (Monsanto Company, priority 1992, dated 1993):

Key:
succinate dehydrogenase = target: T1, succinate dehydrogenase (Botrytis cinerea, UniProt A0A384J5E4+A0A384J8V8+A0A384JHJ5); assay: Enzyme inhibition: succinate dehydrogenase activity in Botrytis cinerea mitochondria (DCPIP reduction); format: biochemical; conditions: concentration required to inhibit the rate of DCPIP reduction by 50%; Botrytis cinerea isolate Nick mitochondria; read-out: I50 (μM conc.)
T1 construct: succinate-DCPIP reductase assay with KCN
Outline: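 DCPIP (45 μM) reduction at 600 nm tracked with 17 mM succinate, 1 mM KCN and 50 mM potassium phosphate, pH 7.2. Compounds were added in acetone (final 1% v/v), and Botrytis cinerea isolate Nick mitochondrial fraction initiated the reaction. Rates minus endogenous activity gave percentage inhibition, plotted semilog against concentration to derive I50 (μM).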

Rhizoctonia solani = assay: Rice sheath blight; format: in vivo; design: scale not given here; conditions: inoculated two days later, rated after 7 days, average of five plants; for Disease Control Rating at 0.02 mg/mL: foliage and soil sprayed with 0.02 mg/mL; for Disease Control Rating at 0.1 mg/mL: foliage and soil sprayed with 0.1 mg/mL; for Disease Control Rating at 0.5 mg/mL: foliage and soil sprayed with 0.5 mg/mL
Outline: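 Preventive test: R. solani inoculum on rice grain was applied at the plant base two days after spraying foliage and soil with Compound A (0.5, 0.1 or 0.02 mg/mL, water/acetone/Tween 20). Plants aged 11–15 days stood in flood trays; after 7 days at 25 °C and high humidity, disease control was rated against untreated plants, five plants averaged.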

Botrytis cinerea [1] = assay: Eggplant grey mold; format: in vivo; design: scale not given here; conditions: inoculated 24 h later, rated after 3-4 days; for Disease Control Rating at 20 ppm: eggplant sprayed with 20 ppm; for Disease Control Rating at 100 ppm: eggplant sprayed with 100 ppm; for Disease Control Rating at 500 ppm: eggplant sprayed with 500 ppm
Outline: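 Protective test: compound formulations (2:3 acetone:water, 0.5% Tween 20; 500, 100 or 20 ppm) sprayed on 14-18-day-old plants, with spore inoculum (4×10^6 spore/mL) applied a day later. Disease control rated on Botrytis lesions after 3-4 days at 23 °C and 100% humidity.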

Botrytis cinerea [2] = assay: Vine grey mold (grape berries); format: in vivo; conditions: average of six berries, 7-10 days; for pest or weed control at 50 ppm: grape berries treated with 50 ppm, read-out: % DISEASE CONTROL 50 ppm; for pest or weed control at 200 ppm: grape berries treated with 200 ppm, read-out: % DISEASE CONTROL 200 ppm
Outline: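 Preventive berry test: compound at 50 or 200 ppm (acetone/water, 0.05% Tween 20) applied one day before inoculation with 10^6 spores/mL Botrytis conidia. After 7-10 days at 20 °C under 12 h light, infected surface area rated; disease control expressed as percent reduction from control mean; repeated-test values averaged.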

T1 sequence (A0A384J5E4 1-300): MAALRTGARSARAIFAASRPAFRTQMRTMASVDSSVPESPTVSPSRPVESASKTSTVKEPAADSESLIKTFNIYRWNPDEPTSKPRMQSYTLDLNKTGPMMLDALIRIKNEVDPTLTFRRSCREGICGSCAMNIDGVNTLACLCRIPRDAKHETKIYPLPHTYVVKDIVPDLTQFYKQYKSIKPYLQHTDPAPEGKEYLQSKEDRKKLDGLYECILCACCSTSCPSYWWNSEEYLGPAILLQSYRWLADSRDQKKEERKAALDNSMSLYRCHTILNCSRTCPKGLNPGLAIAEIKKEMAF
T1 sequence (A0A384J8V8 1-189): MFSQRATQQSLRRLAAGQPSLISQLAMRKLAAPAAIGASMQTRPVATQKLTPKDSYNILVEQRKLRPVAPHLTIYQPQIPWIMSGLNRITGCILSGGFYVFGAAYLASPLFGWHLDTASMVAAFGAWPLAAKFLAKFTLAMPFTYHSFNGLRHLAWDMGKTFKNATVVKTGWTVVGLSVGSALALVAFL
T1 sequence (A0A384JHJ5 1-192): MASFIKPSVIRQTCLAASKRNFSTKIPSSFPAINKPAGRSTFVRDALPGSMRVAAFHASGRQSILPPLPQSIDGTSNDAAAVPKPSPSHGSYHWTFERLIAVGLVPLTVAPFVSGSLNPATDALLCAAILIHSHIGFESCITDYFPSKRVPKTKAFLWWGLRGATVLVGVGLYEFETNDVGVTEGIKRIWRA
T1 sequence (A0A384K456 1-647 partner): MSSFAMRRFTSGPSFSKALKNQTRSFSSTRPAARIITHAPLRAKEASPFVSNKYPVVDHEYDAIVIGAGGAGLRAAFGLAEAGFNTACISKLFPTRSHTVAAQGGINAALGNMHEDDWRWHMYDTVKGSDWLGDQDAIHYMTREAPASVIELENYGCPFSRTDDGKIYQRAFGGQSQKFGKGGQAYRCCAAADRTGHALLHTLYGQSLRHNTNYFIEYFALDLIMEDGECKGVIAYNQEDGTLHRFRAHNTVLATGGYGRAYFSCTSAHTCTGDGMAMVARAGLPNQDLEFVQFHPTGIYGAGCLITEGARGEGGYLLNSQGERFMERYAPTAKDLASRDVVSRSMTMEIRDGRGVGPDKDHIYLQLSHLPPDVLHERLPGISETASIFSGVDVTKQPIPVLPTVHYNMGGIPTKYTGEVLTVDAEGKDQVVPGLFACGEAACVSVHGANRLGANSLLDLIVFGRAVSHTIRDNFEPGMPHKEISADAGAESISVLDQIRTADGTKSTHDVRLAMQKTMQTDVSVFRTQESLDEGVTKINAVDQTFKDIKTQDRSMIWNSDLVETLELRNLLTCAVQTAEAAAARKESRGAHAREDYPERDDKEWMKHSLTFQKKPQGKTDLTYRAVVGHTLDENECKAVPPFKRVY

SMILES	IC50 (succinate dehydrogenase)	Disease Control Rating at 0.02 mg/mL (Rhizoctonia solani)	Disease Control Rating at 0.1 mg/mL (Rhizoctonia solani)	Disease Control Rating at 0.5 mg/mL (Rhizoctonia solani)	Disease Control Rating at 20 ppm (Botrytis cinerea [1])	Disease Control Rating at 100 ppm (Botrytis cinerea [1])	Disease Control Rating at 500 ppm (Botrytis cinerea [1])	pest or weed control at 50 ppm (Botrytis cinerea [2])	pest or weed control at 200 ppm (Botrytis cinerea [2])
COc1cccc(NC(=O)c2cn(C)nc2C(F)(F)F)c1C1CCCCCCC1 [Example 37, 1H-pyrazole-4-carboxamide, N-(2-cyclooctyl-3-methoxyphenyl)-1-methyl-3-(trifluoromethyl)-]	0.0048 µM	3	3	3	0	0	2	25%	54%
COc1ccc(C2CCCCCCC2)c(NC(=O)c2cn(C)nc2C(F)(F)F)c1 [Example 38, 1H-pyrazole-4-carboxamide, N-(2-cyclooctyl-5-methoxyphenyl)-1-methyl-3-(trifluoromethyl)-]	0.014 µM	0	0	1	0	2	2	0%	14%
CSc1nn(C)cc1C(=O)Nc1ccccc1C1CCCCC1 [Example 39, 1H-pyrazole-4-carboxamide, N-(2-cyclohexylphenyl)-1-methyl-3-(methylthio)-]	0.36 µM			0			1	50%	55%
Cn1cc(C(=O)Nc2ccccc2C=C2CCCCC2)c(C(F)(F)F)n1 [Example 40, 1H-pyrazole-4-carboxamide, N-[2-(cyclohexylidenemethyl)phenyl]-1-methyl-3-(trifluoromethyl)-]	0.079 µM			0	0	0	1	2%	3%
Cc1nn(C)cc1C(=O)Nc1ccccc1C1CCCCCCC1 [Example 41, 1H-pyrazole-4-carboxamide, N-(2-cyclooctylphenyl)-1,3-dimethyl-]	0.021 µM	1	3	3	0	0	3	34%	37%
Cn1cc(C(=O)Nc2ccccc2OCC2CCC2)c(C(F)F)n1 [Example 42, 1H-pyrazole-4-carboxamide, N-[2-(cyclobutylmethoxy)phenyl]-3-(difluoromethyl)-1-methyl-]	0.2 µM	2	3	3			0	0%	25%
Cn1cc(C(=O)Nc2ccccc2OCC2CCC2)c(C(F)(F)F)n1 [Example 43, 1H-pyrazole-4-carboxamide, N-[2-(cyclobutylmethoxy)phenyl]-1-methyl-3-(trifluoromethyl)-]	0.38 µM	2	3	3			0	3%	0%
Cn1cc(C(=O)Nc2ccccc2SC2CCCCC2)c(C(F)F)n1 [Example 44, 1H-pyrazole-4-carboxamide, N-[2-(cyclohexylthio)phenyl]-3-(difluoromethyl)-1-methyl-]	0.052 µM			0			1	0%	37%
Cn1cc(C(=O)Nc2ccccc2SC2CCCCC2)c(C(F)(F)F)n1 [Example 45, 1H-pyrazole-4-carboxamide, N-[2-(cyclohexylthio)phenyl]-1-methyl-3-(trifluoromethyl)-]	0.092 µM			0			0	7%	12%
Cn1cc(C(=O)Nc2ccccc2OCC2CCCC2)c(C(F)F)n1 [Example 46, 1H-pyrazole-4-carboxamide, N-[2-(cyclopentylmethoxy)phenyl]-3-(difluoromethyl)-1-methyl-]	0.096 µM	2	3	3			0	1%	0%
Cn1cc(C(=O)Nc2ccccc2OCC2CCCC2)c(C(F)(F)F)n1 [Example 47, 1H-pyrazole-4-carboxamide, N-[2-(cyclopentylmethoxy)phenyl]-1-methyl-3-(trifluoromethyl)-]	0.16 µM	1	3	3			0	3%	0%
Cn1cc(C(=O)Nc2ccccc2OCCCC2CCCC2)c(C(F)F)n1 [Example 48, 1H-pyrazole-4-carboxamide, N-[2-(3-cyclopentylpropoxy)phenyl]-3-(difluoromethyl)-1-methyl-]	0.02 µM			2			0	10%	0%
Cn1cc(C(=O)Nc2ccccc2OCCCC2CCCC2)c(C(F)(F)F)n1 [Example 49, 1H-pyrazole-4-carboxamide, N-[2-(3-cyclopentylpropoxy)phenyl]-1-methyl-3-(trifluoromethyl)-]	0.047 µM			0			0	4%	0%
Cn1cc(C(=O)Nc2ccccc2C2CCCCC2)c(Cl)n1 [Example 50, 1H-pyrazole-4-carboxamide, 3-chloro-N-(2-cyclohexylphenyl)-1-methyl-]	0.098 µM	0	0	2			0	8%	22%
Cn1cc(C(=O)Nc2ccccc2C2CCCCCC2)c(Cl)n1 [Example 51, 1H-pyrazole-4-carboxamide, 3-chloro-N-(2-cycloheptylphenyl)-1-methyl-]	0.023 µM	0	1	2			0	16%	27%
CC(c1ccccc1NC(=O)c1cn(C)nc1C(F)(F)F)C1CCCC1 (stereo not drawn) [Example 53, 1H-pyrazole-4-carboxamide, N-[2-(1-cyclopentylethyl)phenyl]-1-methyl-3-(trifluoromethyl)-]	0.021 µM	2	3	3			0	40%	70%
